Test results published in PMC8206213, “An L-2-hydroxyglutarate biosensor based on specific transcriptional regulator LhgR” (Nature Communications, 2021).
Several values for one entry are separate records, joined by “and”; a condition that tells them apart may be missing. Equal entries are not always repeated.

Assay: LHGFR expressed in E. coli BL21(DE3), response to exogenous L-2-HG (time course and dose-response)
Type: cell-based
Settings: Fig. 5a
Procedure: To characterize the sensitivity and specificity of LHGFR expressed in E. coli BL21(DE3), 90 μL cell suspensions following 8 h carbon starvation were mixed with 10 μL increasing concentrations of L-2-HG or other compounds, and then added into a black 96-well plate (total 100 μL/per well), the fluorescence intensities were determined using an EnSight microplate reader (PerkinElmer, USA) and the following instrument settings: excitation at 430 nm, emission at 485 nm (mTFP) and 528 nm (Venus), time intervals of 5 min, the temperature at 37 °C, and shake at 180 rpm.

Which Emission ratio (0.1 μM L-2-HG, 0 min) does the source give for `O=C(O)CC[C@H](O)C(=O)O` [L-2-HG, L-2-Hydroxyglutarate] here?
Its Emission ratio is 1.012 and 0.989 and 0.997.

And the Emission ratio (0.1 μM L-2-HG, 5 min)?
The Emission ratio was 1.02 and 0.9981 and 1.004.

What about the Emission ratio (0.1 μM L-2-HG, 10 min) of the same compound?
Its Emission ratio is 1.016 and 1.0025 and 1.009.

And the Emission ratio (0.1 μM L-2-HG, 15 min)?
The Emission ratio was 1.023 and 1.007 and 1.026.

And the Emission ratio (0.1 μM L-2-HG, 20 min)?
Its Emission ratio is 1.034 and 1.009 and 1.038.

What about the Emission ratio (0.1 μM L-2-HG, 25 min) of the same compound?
The Emission ratio was 1.022 and 1.0081 and 1.026.

What about the Emission ratio (0.1 μM L-2-HG, 30 min) of the same compound?
The Emission ratio was 1.026 and 1.01 and 1.02.

What about the Emission ratio (0.1 μM L-2-HG, 35 min) of the same compound?
The Emission ratio was 1.021 and 1.007 and 1.025.

And the Emission ratio (0.1 μM L-2-HG, 40 min)?
Its Emission ratio is 1.033 and 1.012 and 1.025.

What about the Emission ratio (0.1 μM L-2-HG, 45 min) of the same compound?
The Emission ratio was 1.028 and 1.004 and 1.026.

What about the Emission ratio (0.1 μM L-2-HG, 50 min) of the same compound?
The Emission ratio was 1.037 and 1.012 and 1.035.

What about the Emission ratio (0.1 μM L-2-HG, 55 min) of the same compound?
The Emission ratio was 1.031 and 1.006 and 1.033.

What about the Emission ratio (0.1 μM L-2-HG, 60 min) of the same compound?
The Emission ratio was 1.022 (2×) and 1.012.

What about the Emission ratio (0.1 μM L-2-HG, 65 min) of the same compound?
Its Emission ratio is 1.024 and 1.014 and 1.029.

And the Emission ratio (0.1 μM L-2-HG, 70 min)?
Its Emission ratio is 1.0212 and 1.016 and 1.02.

And the Emission ratio (0.1 μM L-2-HG, 75 min)?
The Emission ratio was 1.025 (2×) and 1.033.

And the Emission ratio (0.1 μM L-2-HG, 80 min)?
Its Emission ratio is 1.031 and 1.009 and 1.021.

And the Emission ratio (0.1 μM L-2-HG, 85 min)?
Its Emission ratio is 1.0115 and 1.016 and 1.023.

And the Emission ratio (0.1 μM L-2-HG, 90 min)?
The Emission ratio was 1.021 (2×) and 1.032.

What about the Emission ratio (1 μM L-2-HG, 0 min) of the same compound?
The Emission ratio was 0.9972 and 0.975 and 0.9871.

And the Emission ratio (1 μM L-2-HG, 5 min)?
Its Emission ratio is 1.009 and 0.9962 and 0.9991.

What about the Emission ratio (1 μM L-2-HG, 10 min) of the same compound?
Its Emission ratio is 1.023 and 0.9982 and 1.005.

And the Emission ratio (1 μM L-2-HG, 15 min)?
Its Emission ratio is 1.0208 and 0.9996 and 1.009.

And the Emission ratio (1 μM L-2-HG, 20 min)?
The Emission ratio was 1.0328 and 1.012 and 1.019.

What about the Emission ratio (1 μM L-2-HG, 25 min) of the same compound?
The Emission ratio was 1.021 and 1.008 and 1.022.

And the Emission ratio (1 μM L-2-HG, 30 min)?
Its Emission ratio is 1.0327 and 1.008 (2×).

And the Emission ratio (1 μM L-2-HG, 35 min)?
The Emission ratio was 1.03 and 0.9986 and 1.019.

What about the Emission ratio (1 μM L-2-HG, 40 min) of the same compound?
Its Emission ratio is 1.036 and 1.0055 and 1.012.

And the Emission ratio (1 μM L-2-HG, 45 min)?
Its Emission ratio is 1.034 and 0.9995 and 1.022.

And the Emission ratio (1 μM L-2-HG, 50 min)?
Its Emission ratio is 1.045 and 1.003 and 1.021.

What about the Emission ratio (1 μM L-2-HG, 55 min) of the same compound?
The Emission ratio was 1.024 and 1.003 and 1.034.

And the Emission ratio (1 μM L-2-HG, 60 min)?
Its Emission ratio is 1.027 and 1.003 and 1.025.

And the Emission ratio (1 μM L-2-HG, 65 min)?
The Emission ratio was 1.026 and 0.994 and 1.032.

What about the Emission ratio (1 μM L-2-HG, 70 min) of the same compound?
The Emission ratio was 1.026 and 0.9971 and 1.03.

What about the Emission ratio (1 μM L-2-HG, 75 min) of the same compound?
The Emission ratio was 1.025 and 1.005 and 1.037.

What about the Emission ratio (1 μM L-2-HG, 80 min) of the same compound?
Its Emission ratio is 1.033 (2×) and 0.9987.

What about the Emission ratio (1 μM L-2-HG, 85 min) of the same compound?
The Emission ratio was 1.013 and 1.0091 and 1.026.

And the Emission ratio (1 μM L-2-HG, 90 min)?
Its Emission ratio is 1.034 and 1.005 and 1.032.

What about the Emission ratio (10 μM L-2-HG, 0 min) of the same compound?
The Emission ratio was 0.9974 and 0.9749 and 0.9795.

What about the Emission ratio (10 μM L-2-HG, 5 min) of the same compound?
The Emission ratio was 1.027 and 0.9941 and 0.9973.

And the Emission ratio (10 μM L-2-HG, 10 min)?
The Emission ratio was 1.031 and 0.9958 and 1.001.

What about the Emission ratio (10 μM L-2-HG, 15 min) of the same compound?
The Emission ratio was 1.0289 and 1.0021 and 1.009.

And the Emission ratio (10 μM L-2-HG, 20 min)?
Its Emission ratio is 1.045 and 1 and 1.01.

And the Emission ratio (10 μM L-2-HG, 25 min)?
Its Emission ratio is 1.039 and 0.9977 and 1.015.

What about the Emission ratio (10 μM L-2-HG, 30 min) of the same compound?
The Emission ratio was 1.037 and 0.9978 and 1.007.

And the Emission ratio (10 μM L-2-HG, 35 min)?
The Emission ratio was 1.04 and 1.003 and 1.015.

What about the Emission ratio (10 μM L-2-HG, 40 min) of the same compound?
The Emission ratio was 1.03 and 1 and 1.011.

What about the Emission ratio (10 μM L-2-HG, 45 min) of the same compound?
The Emission ratio was 1.029 and 1.001 and 1.0118.

And the Emission ratio (10 μM L-2-HG, 50 min)?
Its Emission ratio is 1.038 and 1.001 and 1.016.

What about the Emission ratio (10 μM L-2-HG, 55 min) of the same compound?
The Emission ratio was 1.018 and 0.9882 and 1.017.

And the Emission ratio (10 μM L-2-HG, 60 min)?
The Emission ratio was 1.019 (2×) and 0.997.

And the Emission ratio (10 μM L-2-HG, 65 min)?
The Emission ratio was 1.0139 and 0.9961 and 1.023.

And the Emission ratio (10 μM L-2-HG, 70 min)?
The Emission ratio was 1.0139 and 0.9946 and 1.028.

What about the Emission ratio (10 μM L-2-HG, 75 min) of the same compound?
The Emission ratio was 1.017 and 0.9951 and 1.034.

What about the Emission ratio (10 μM L-2-HG, 80 min) of the same compound?
Its Emission ratio is 1.022 and 0.9886 and 1.029.

What about the Emission ratio (10 μM L-2-HG, 85 min) of the same compound?
The Emission ratio was 1.023 and 0.9843 and 1.034.

What about the Emission ratio (10 μM L-2-HG, 90 min) of the same compound?
Its Emission ratio is 1.009 and 0.9801 and 1.033.

And the Emission ratio (20 μM L-2-HG, 0 min)?
Its Emission ratio is 0.9789 and 0.9659 and 0.9802.

And the Emission ratio (20 μM L-2-HG, 5 min)?
The Emission ratio was 0.9958 and 0.9868 and 0.9915.

What about the Emission ratio (20 μM L-2-HG, 10 min) of the same compound?
The Emission ratio was 1.008 and 0.9945 and 0.999.

What about the Emission ratio (20 μM L-2-HG, 15 min) of the same compound?
Its Emission ratio is 1.027 and 1.004 and 1.005.

And the Emission ratio (20 μM L-2-HG, 20 min)?
Its Emission ratio is 1.024 and 1.0082 and 1.

And the Emission ratio (20 μM L-2-HG, 25 min)?
The Emission ratio was 1.026 and 1.013 and 1.0078.

And the Emission ratio (20 μM L-2-HG, 30 min)?
The Emission ratio was 1.036 and 1.005 and 1.016.

And the Emission ratio (20 μM L-2-HG, 35 min)?
The Emission ratio was 1.021 and 1.001 and 1.019.

And the Emission ratio (20 μM L-2-HG, 40 min)?
Its Emission ratio is 1.043 and 1.002 and 1.018.

What about the Emission ratio (20 μM L-2-HG, 45 min) of the same compound?
Its Emission ratio is 1.041 and 1.009 and 1.022.

And the Emission ratio (20 μM L-2-HG, 50 min)?
The Emission ratio was 1.04 and 1.006 and 1.0167.

And the Emission ratio (20 μM L-2-HG, 55 min)?
The Emission ratio was 1.015 and 1.004 and 1.027.

And the Emission ratio (20 μM L-2-HG, 60 min)?
Its Emission ratio is 1.0355 and 0.9994 and 1.024.

What about the Emission ratio (20 μM L-2-HG, 65 min) of the same compound?
Its Emission ratio is 1.024 and 1.003 and 1.019.

What about the Emission ratio (20 μM L-2-HG, 70 min) of the same compound?
Its Emission ratio is 1.023 and 0.9958 and 1.025.

What about the Emission ratio (20 μM L-2-HG, 75 min) of the same compound?
The Emission ratio was 1.0243 and 1.007 and 1.0344.

What about the Emission ratio (20 μM L-2-HG, 80 min) of the same compound?
Its Emission ratio is 1.023 and 0.9899 and 1.029.

What about the Emission ratio (20 μM L-2-HG, 85 min) of the same compound?
The Emission ratio was 1.012 and 1.001 and 1.028.

What about the Emission ratio (20 μM L-2-HG, 90 min) of the same compound?
The Emission ratio was 1.022 and 0.9961 and 1.035.

And the Emission ratio (100 μM L-2-HG, 0 min)?
The Emission ratio was 0.9864 and 0.9735 and 0.9711.

What about the Emission ratio (100 μM L-2-HG, 5 min) of the same compound?
The Emission ratio was 1.005 and 0.9924 and 0.9939.

What about the Emission ratio (100 μM L-2-HG, 10 min) of the same compound?
The Emission ratio was 1.009 and 1.008 and 1.012.

And the Emission ratio (100 μM L-2-HG, 15 min)?
Its Emission ratio is 1.0245 and 1.016 and 1.019.

What about the Emission ratio (100 μM L-2-HG, 20 min) of the same compound?
The Emission ratio was 1.0318 and 1.022 and 1.0268.

And the Emission ratio (100 μM L-2-HG, 25 min)?
Its Emission ratio is 1.0276 and 1.029 and 1.024.

And the Emission ratio (100 μM L-2-HG, 30 min)?
Its Emission ratio is 1.034 and 1.025 and 1.028.

And the Emission ratio (100 μM L-2-HG, 35 min)?
Its Emission ratio is 1.039 and 1.026 and 1.037.

And the Emission ratio (100 μM L-2-HG, 40 min)?
Its Emission ratio is 1.0304 and 1.029 and 1.028.
